Source: patent publication US20260315447A1, “COMBINATION THERAPY WITH A MTOR INHIBITOR AND A MULTI-TYROSINE KINASE INHIBITOR FOR TREATING SOFT TISSUE SARCOMA” (ADDi Bioscience, Inc., priority 2023, published 2026)
Entries after “also recorded” stand apart in the source; their conditions may differ.

Columns and labels:
[1] = Phase I study of oral pazopanib and intravenous nab-sirolimus: safety (adverse events, dose-limiting toxicity, recommended dose); type: in vivo, human; details: by mouth daily, in combination with nab-sirolimus 30 mg/m^2
Source text: This was a phase I study designed to determine the safety and feasibility of a combination of oral pazopanib hydrochloride and intravenous nab-sirolimus. To obtain preliminary information regarding efficacy, the study had limited enrollment to those patients with advanced/unresectable STS for whom single agent pazopanib was indicated as a therapy.
The primary endpoint of the study was the determination of a maximum-tolerated dose (MTD) and recommended Phase 2 dose of nab-sirolimus combined with pazopanib. Secondary endpoints included characterization of adverse events of the nab-sirolimus/pazopanib combination and descriptive characterization of clinical benefit of the nab-sirolimus/pazopanib combination (objective responses, progression-free survival duration, and clinical benefit rates at 3 and 6 months). Correlative endpoints were included to evaluate the correlation of clinical benefit with baseline mTOR pathway activation status, as assessed by immunohistochemistry for phosphorylated-S6 ribosomal protein, correlation of clinical benefit with baseline tumoral expression of Serum Protein Acidic and Rich in Cysteine (SPARC)/Osteonectin, as assessed by immunohistochemistry, and pharmacokinetics of nab-sirolimus in combination with pazopanib.
If no DLT occurred after two doses, escalation to the next dose level was permitted. […]

[2] = tested on: soft-tissue sarcoma; details: single agent pazopanib, soft-tissue sarcoma patients; cited from earlier work
[3] = tested on: human plasma proteins; details: cited from earlier work
[4] = tested on: mTORC2; details: cited from earlier work
[5] = tested on: mTORCI; details: cited from earlier work
[6] = tested on: Human serum albumin (HSA); details: cited from earlier work

Structure (SMILES): Cc1ccc(Nc2nccc(N(C)c3ccc4c(C)n(C)nc4c3)n2)cc1S(N)(=O)=O [pazopanib]
- Recommended Phase 2 dose of pazopanib [1]: 400 mg
- overall survival compared to placebo control [2]: did not have a meaningful improvement in overall survival rate; also recorded: not found to provide a significant difference in overall survival
- response rate [2]: ~6%

Structure (SMILES): CC(=O)O[C@@]12CO[C@@H]1C[C@H](O)[C@@]1(C)C(=O)[C@H](O)C3=C(C)[C@@H](OC(=O)[C@H](O)[C@@H](NC(=O)OC(C)(C)C)c4ccccc4)C[C@@](O)([C@@H](OC(=O)c4ccccc4)[C@H]21)C3(C)C [docetaxel]
- binding to human plasma proteins [3]: bind to human plasma proteins

Structure (SMILES): COc1cccc2cc(-c3nc([C@H]4CC[C@H](C(=O)O)CC4)n4ncnc(N)c34)[nH]c12 [OSI-027]
- IC50 [4]: 0.065 µM
- IC50 [5]: 0.022 µM

Structure (SMILES): CC(C)c1cccc(C(C)C)c1O [propofol]
- binding to HSA [6]: bind HSA

Structure (SMILES): CO[C@H]1C[C@@H]2CC[C@@H](C)[C@@](O)(O2)C(=O)C(=O)N2CCCC[C@H]2C(=O)O[C@H]([C@H](C)C[C@@H]2CC[C@@H](O)[C@H](OC)C2)CC(=O)[C@H](C)/C=C(\C)[C@@H](O)[C@@H](OC)C(=O)[C@H](C)C[C@H](C)/C=C/C=C/C=C/1C [Rapamycin, rapamycin]
- binding to HSA [6]: bind HSA
